Measured values published in the supplement of paper PMC10307832.

Legend:
Assay in all cases: relative viability (nuclei count vs DMSO), 5 days (fraction); higher = more cells survive
Erlotinib + Palbociclib = compound: C#Cc1cccc(Nc2ncnc3cc(OCCOC)c(OCCOC)cc23)c1 [Erlotinib] + CC(=O)c1c(C)c2cnc(Nc3ccc(N4CCNCC4)cn3)nc2n(C2CCCC2)c1=O [Palbociclib] (partner 0.5 µM)
How it was run: (§1)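 Lung cancer cell lines in 1536-well plates got either a single drug or a fixed anchor-drug dose together with five library-drug doses (not always all listed) in √10 steps, by pin tool, on the day after seeding. Nuclei were counted after 5 days, and relative viability is the treated-to-vehicle ratio of nuclei counts. Values are medians of duplicate plates.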

Erlotinib + Lapatinib = compound: C#Cc1cccc(Nc2ncnc3cc(OCCOC)c(OCCOC)cc23)c1 [Erlotinib] + CS(=O)(=O)CCNCc1ccc(-c2ccc3ncnc(Nc4ccc(OCc5cccc(F)c5)c(Cl)c4)c3c2)o1 [Lapatinib] (partner 2 µM)
How it was run: as §1

Erlotinib + Pictilisib = compound: C#Cc1cccc(Nc2ncnc3cc(OCCOC)c(OCCOC)cc23)c1 [Erlotinib] + CS(=O)(=O)N1CCN(Cc2cc3nc(-c4cccc5[nH]ncc45)nc(N4CCOCC4)c3s2)CC1 [Pictilisib] (partner 1 µM)
How it was run: as §1

Erlotinib + Olaparib = compound: C#Cc1cccc(Nc2ncnc3cc(OCCOC)c(OCCOC)cc23)c1 [Erlotinib] + O=C(c1cc(Cc2n[nH]c(=O)c3ccccc23)ccc1F)N1CCN(C(=O)C2CC2)CC1 [Olaparib] (partner 8 µM)
How it was run: as §1

AT9283 + Lapatinib = compound: O=C(Nc1c[nH]nc1-c1nc2ccc(CN3CCOCC3)cc2[nH]1)NC1CC1 [AT9283] + CS(=O)(=O)CCNCc1ccc(-c2ccc3ncnc(Nc4ccc(OCc5cccc(F)c5)c(Cl)c4)c3c2)o1 [Lapatinib] (partner 2 µM)
How it was run: as §1

Cell Line | relative viability (Erlotinib + Palbociclib; first compound 0.02 µM) | relative viability (Erlotinib + Palbociclib; first compound 0.2 µM) | relative viability (Erlotinib + Palbociclib; first compound 0.6325 µM) | relative viability (Erlotinib + Palbociclib; first compound 2 µM) | relative viability (Erlotinib + Lapatinib; first compound 0.02 µM) | relative viability (Erlotinib + Lapatinib; first compound 0.2 µM) | relative viability (Erlotinib + Lapatinib; first compound 0.6325 µM) | relative viability (Erlotinib + Lapatinib; first compound 2 µM) | relative viability (Erlotinib + Pictilisib; first compound 0.02 µM) | relative viability (Erlotinib + Pictilisib; first compound 0.2 µM) | relative viability (Erlotinib + Pictilisib; first compound 0.6325 µM) | relative viability (Erlotinib + Pictilisib; first compound 2 µM) | relative viability (Erlotinib + Olaparib; first compound 0.02 µM) | relative viability (Erlotinib + Olaparib; first compound 0.2 µM) | relative viability (Erlotinib + Olaparib; first compound 0.6325 µM) | relative viability (Erlotinib + Olaparib; first compound 2 µM) | relative viability (AT9283 + Lapatinib; first compound 0.003 µM) | relative viability (AT9283 + Lapatinib; first compound 0.03 µM) | relative viability (AT9283 + Lapatinib; first compound 0.09487 µM) | relative viability (AT9283 + Lapatinib; first compound 0.3 µM)
NCI-H322M | 0.401 | 0.431 | 0.378 | 0.426 | 0.551 | 0.604 | 0.555 | 0.541 | 0.456 | 0.499 | 0.347 | 0.365 | 0.776 | 0.67 | 0.631 | 0.551 | 0.548 | 0.272 | 0.32 | 0.335
NCI-H1734 | 0.346 | 0.342 | 0.372 | 0.41 | 1.15 | 1.02 | 1.3 | 1 | 0.494 | 0.474 | 0.542 | – | 0.61 | 0.588 | 0.583 | 0.545 | 0.988 | 0.687 | 0.291 | 0.249
HCC-366 | 0.389 | 0.358 | 0.544 | 0.312 | 1.08 | 1 | 1.33 | 1.09 | 0.185 | 0.0789 | 0.12 | 0.137 | 0.331 | 0.359 | 0.353 | 0.242 | 1.01 | 0.0702 | 0.0449 | 0.0374
NCI-H1437 | 0.308 | 0.27 | 0.319 | 0.281 | 0.788 | 0.812 | 1 | 0.726 | 0.431 | 0.408 | 0.482 | 0.347 | 0.638 | 0.646 | 0.607 | 0.612 | 0.702 | 0.246 | 0.157 | 0.155
NCI-H661 | 0.418 | 0.43 | 0.383 | 0.355 | 0.493 | 0.41 | – | 0.473 | 0.333 | – | 0.416 | 0.294 | 0.801 | 0.79 | 0.74 | 0.615 | 0.471 | 0.518 | 0.276 | 0.286
NCI-H1651 | 0.527 | 0.474 | 0.514 | 0.478 | 0.906 | 0.693 | 1.02 | 0.768 | 0.511 | 0.628 | 0.662 | 0.5 | 0.171 | 0.188 | 0.173 | 0.145 | 0.83 | 0.481 | 0.215 | 0.279
NCI-H727 | 0.615 | 0.513 | 0.586 | 0.476 | 0.821 | 0.873 | 0.929 | 0.766 | 0.456 | 0.344 | 0.346 | 0.339 | 0.696 | 0.947 | 0.607 | 0.721 | 0.847 | 0.435 | 0.28 | 0.249
HCC-78 | 0.482 | 0.432 | 0.458 | 0.459 | 0.737 | 0.742 | 0.696 | 0.701 | 0.195 | 0.207 | 0.218 | 0.21 | 0.877 | 0.634 | – | 0.728 | 0.562 | 0.587 | 0.224 | 0.196
